# From patent US10435396B2, “2-substituted indazoles, methods for producing same, pharmaceutical preparations that contain same, and use of same to produce drugs” (Bayer Pharma Aktiengesellschaft, priority 2016, dated 2019)
# Read-outs that look alike come from different tables or passages of the source.
# Legend:
# Assay type in all cases: cell-based, human
# TMD-8 cells = assay: Cell proliferation measurement in TMD-8 cells; settings: Cell Titer Glo, read-out: IC50 with respect to proliferation inhibition in TMD-8 cells
# Protocol: Cell Proliferation Measurement The antiproliferative activity of the inventive compounds of the general formula (I) was examined in vitro in human ABC-DLBCL cells (see Table 3). For this purpose 4000 TMD-8 cells (both from ATCC) at 30 μl/cavity in growth medium (RPMI (Biochrom: FG 1215), 20% FCS (Biochrom: S 0615)) were transferred into a 384-cavity plate (Perkin Elmer, white) and incubated at 37° C. overnight. After 24 h, cells on one plate (0 h plate) were treated with 30 μl/cavity of CTG solution (Promega Cell Titer Glo (catalogue # […] and […])) and incubated at room temperature for 10 min, and luminescence was measured by means of a VICTOR V (Perkin Elmer), in order to determine cell viability on commencement of treatment. The cells on the test plate were treated with the inventive compounds of the general formula (I) and incubated at 37° C. for 72 h. The compounds were added to the cells in a 7-stage, 3-fold dilution series using an HP D300 digital dispenser. As control, the cells were treated with vehicle (DMSO). After 72 h, the cells were treated with 30 μl/cavity of CTG solution (Promega Cell Titer Glo (catalogue # […] and […])) and incubated at room temperature for 10 min, and luminescence was measured by means of a VICTOR V (Perkin Elmer), in order to determine cell viability at the end of treatment. The percentage effect on cell growth and the IC50 derived therefrom were determined for each test substance using the values from the 0 h plate (=maximum inhibition) and the DMSO control (=minimum inhibition). The IC50 values were calculated using a 4-parameter fit.
# [1] = system: secretion of TNF-α in THP-1 cells; assay: TNF-α secretion in THP-1 cells (LPS-triggered); settings: LPS 0.05 μg/ml, read-out: IC50 with respect to the secretion of TNF-α in THP-1 cells
# Protocol: TNF-α Secretion in THP-1 Cells
# With the aid of this test, it is possible to test substances for their ability to inhibit secretion of TNF-α (tumour necrosis factor alpha) in THP-1 cells (human monocytic acute leukaemia cell line). TNF-α is a cytokine involved in inflammatory processes. In this test, TNF-α secretion is triggered by incubation with bacterial lipopolysaccharide (LPS).
# THP-1 cells are kept in continuous suspension cell culture [RPMI 1460 medium with L-Glutamax (Gibco, Cat No. 61870-044) supplemented with foetal calf serum (FCS) 10% (Invitrogen, Cat No. 10082-147), 1% penicillin/streptomycin (Gibco BRL, Cat No. 15140-114)] and should not exceed a cell concentration of 1×10^6 cells/ml. The assay is carried out in cell culture medium (RPMI 1460 medium with L-Glutamax supplemented with FCS 10%).
# In each case 2-2.5 μl of the cell suspension (corresponds to 4000 cells) per well were dispensed into a 384-well test plate (Greiner, Cat No. 784076), in each of which 40-50 nl substance had been dissolved in 100% DMSO. This was done using […] in the range from 20 μM to 0.073 nM for each substance. The cells were incubated at room temperature for 15 min. 2-2.5 μl of 0.1 μg/ml LPS (Sigma, Escherichia coli 055:B5, Cat. No. L5418) dissolved in cell culture medium (final concentration 0.05 μg/ml) were then dispensed into each well. As neutral control, cells were treated with 0.05 μg/ml LPS and 1% DMSO and, as inhibitor control, with 1% DMSO only.
# The plates were centrifuged at 80 g for 30 s and incubated at 37° C., 5% CO2 and 95% atmospheric humidity for 17 h. The amount of TNF-α was determined using the TNF-alpha HTRF Detection Kit (Cisbio, Cat No. 62TNFPEB/C). To this end, 2 μl of the detection solution in each case, consisting of anti-TNF-α-XL665 conjugate and anti-TNF-α-cryptate conjugate dissolved in the reconstitution buffer in accordance with the manufacturer's instructions, were added for the HTRF (Homogeneous Time-Resolved Fluorescence) test. After the addition, the mixture was incubated either at room temperature for 3 h or at 4° C. overnight. The signals were then read at 620/665 nm using an HTRF-enabled measuring instrument such as the BMG PheraStar.
# The activity of the substances is expressed as the ratio between neutral and inhibitor control in percent. The IC50 values were calculated using a 4-parameter fit.
# [2] = system: NF-kB activity in TMD-8-NF-kB-luc cells; assay: NF-kB reporter assay; settings: 6 h, One-Glo, read-out: IC50 with respect to the inhibition of NF-kB activity in TMD-8-NF-kB-luc cells
# Protocol: NF-kB Reporter Assay The effect of the inventive compounds of the general formula (I) on the NF-kB signalling pathway was examined in vitro in human DLBCL cells (see Table 4). 10 000 TMD-8-NF-kB-luc reporter cells at 30 μl/cavity in growth medium (RPMI (Biochrom: FG 1215), 20% FCS (Biochrom: S 0615)) were transferred into a 384-cavity plate (Perkin Elmer, white) and incubated at 37° C. overnight. After 24 h, the cells were treated with the test substances and incubated at 37° C. for 6 h. The test substances were added to the cells in a 7-stage, 3-fold dilution series using an HP D300 digital dispenser. As control, the cells were treated with the vehicle (DMSO). After 6 h, the cells were treated with 30 μl/well One-Glo solution (Promega, E6110) and incubated at room temperature for 10 min, and the luminescence was measured using a VICTOR V (Perkin Elmer) in order to determine the NF-kB reporter activity at the end of the treatment. The percentage effect of the NF-kB reporter activity and the IC50 derived therefrom were determined for each test substance with the aid of the values for an NF-kB pathway inhibitor (I-kappa B kinase inhibitor) (−)-7-[2-(cyclopropylmethoxy)-6-hydroxyphenyl]-5-[(3S)-3-piperidinyl]-1,4-dihydro-2H-pyrido[2,3-d][1,3]oxazin-2-one (CAS Number 600734-02-9; see WO 2003076447) (=maximum inhibition) and the DMSO control (=minimum inhibition). The IC50 values were calculated using a 4-parameter fit.
"IC50 ([1]; Homo sapiens, THP-1, 17 h) [µM]",IC50 ([2]; Homo sapiens) [µM],IC50 ([1]; 17 h) [µM],IC50 [2] [µM],SMILES,"IC50 (TMD-8 cells; Homo sapiens, TMD8, 72 h) [µM]",IC50 (TMD-8 cells; 72 h) [µM]
0.17,14.6,,,"CC(C)(O)c1cc2nn(C3CCS(=O)(=O)CC3)cc2cc1NC(=O)c1cccc(C(F)(F)F)n1 [Example 44, N-[2-(1,1-Dioxidotetrahydro-2H-thiopyran-4-yl)-6-(2-hydroxypropan-2-yl)-2H-indazol-5-yl]-6-(trifluoromethyl)pyridine-2-carboxamide]",18.8,
,,0.06,21.8,"COc1cc2nn(C3CCS(=N)(=O)CC3)cc2cc1NC(=O)c1cccc(C(F)(F)F)n1 (single isomer, unassigned) [Example 20, N-[2-(1-Imino-1-oxidohexahydro-1λ^4-thiopyran-4-yl)-6-methoxy-2H-indazol-5-yl]-6-(trifluoromethyl)pyridine-2-carboxamide]",,16.1
0.41,2.68,,,"COc1cc2nn(C3CCOCC3)cc2cc1NC(=O)c1cccc(C(C)(C)O)n1 [Example 28, 6-(2-Hydroxypropan-2-yl)-N-[6-methoxy-2-(tetrahydro-2H-pyran-4-yl)-2H-indazol-5-yl]pyridine-2-carboxamide]",3.51,
0.23,3.84,,,"COc1cc2nn(C3CCOCC3)cc2cc1NC(=O)c1cccc(C(F)F)n1 [Example 23, 6-(Difluoromethyl)-N-[6-methoxy-2-(tetrahydro-2H-pyran-4-yl)-2H-indazol-5-yl]pyridine-2-carboxamide]",8.52,
0.1,6.81,,,"COc1cc2nn(C3CC[S+]([O-])CC3)cc2cc1NC(=O)c1cccc(C(F)(F)F)n1 (racemic) [Example 12, rac-N-[6-Methoxy-2-(1-oxidotetrahydro-2H-thiopyran-4-yl)-2H-indazol-5-yl]-6-(trifluoromethyl)pyridine-2-carboxamide]",11.5,
0.21,15.6,,,"COc1cc2nn(C3CCOCC3)cc2cc1NC(=O)c1cccc(C(F)(F)F)n1 [Example 1, N-[6-Methoxy-2-(tetrahydro-2H-pyran-4-yl)-2H-indazol-5-yl]-6-(trifluoromethyl)pyridine-2-carboxamide]",28.2,
0.14,5.1,,,"COc1cc2nn(C3CCN(CCO)CC3)cc2cc1NC(=O)c1cccc(C(F)(F)F)n1 [Example 13, N-{2-[1-(2-Hydroxyethyl)piperidin-4-yl]-6-methoxy-2H-indazol-5-yl}-6-(trifluoromethyl)pyridine-2-carboxamide]",5.85,
0.06,5.52,,,"COc1cc2nn([C@@H]3C[C@@H]4C[C@H]3CN4C)cc2cc1NC(=O)c1cccc(C(F)(F)F)n1 (relative stereo) [Example 18, rel-N-{6-Methoxy-2-[(1S,4S,5R)-2-methyl-2-azabicyclo[2.2.1]hept-5-yl]-2H-indazol-5-yl}-6-(trifluoromethyl)pyridine-2-carboxamide]",3.45,
0.21,5.1,,,"COc1cc2nn(C3CCN(C(=O)CO)CC3)cc2cc1NC(=O)c1cccc(C(F)(F)F)n1 [Example 5, N-[2-(1-Glycoloylpiperidin-4-yl)-6-methoxy-2H-indazol-5-yl]-6-(trifluoromethyl)pyridine-2-carboxamide]",15.5,
0.14,7.41,,,"COc1cc2nn(C3CCN(C)CC3)cc2cc1NC(=O)c1cccc(C(F)(F)F)n1 [Example 4, N-[6-Methoxy-2-(1-methylpiperidin-4-yl)-2H-indazol-5-yl]-6-(trifluoromethyl)pyridine-2-carboxamide]",4.08,
0.17,22.6,,,"COc1cc2nn(C3CCOCC3)cc2cc1NC(=O)c1cccc(N2CCOCC2)n1 [Example 24, N-[6-Methoxy-2-(tetrahydro-2H-pyran-4-yl)-2H-indazol-5-yl]-6-(morpholin-4-yl)pyridine-2-carboxamide]",28.1,
0.17,28.9,,,"COc1cc2nn(C3CCN(C4COC4)CC3)cc2cc1NC(=O)c1cccc(C(F)(F)F)n1 [Example 10, N-{6-Methoxy-2-[1-(oxetan-3-yl)piperidin-4-yl]-2H-indazol-5-yl}-6-(trifluoromethyl)pyridine-2-carboxamide]",23.3,
0.09,13.4,,,"CC(C)(O)c1cc2nn(C3CCNCC3)cc2cc1NC(=O)c1cccc(C(F)(F)F)n1 [Example 46, N-[6-(2-Hydroxypropan-2-yl)-2-(piperidin-4-yl)-2H-indazol-5-yl]-6-(trifluoromethyl)pyridine-2-carboxamide]",14.1,
,,0.17,5.19,"COc1cc2nn(C3CCS(=N)(=O)CC3)cc2cc1NC(=O)c1cccc(C(F)(F)F)n1 (single isomer, unassigned) [Example 21, N-[2-(1-Imino-1-oxidohexahydro-1λ^4-thiopyran-4-yl)-6-methoxy-2H-indazol-5-yl]-6-(trifluoromethyl)pyridine-2-carboxamide]",14.8,
0.13,9.45,,,"COc1cc2nn(C3CCNCC3)cc2cc1NC(=O)c1cccc(C(F)(F)F)n1 [Example 2, N-[6-Methoxy-2-(piperidin-4-yl)-2H-indazol-5-yl]-6-(trifluoromethyl)pyridine-2-carboxamide]",8.61,
